According to article PMC4363092 (Journal of medicinal chemistry, 2014):

Tests used:
human NTPDase1,2,3,8 = assay: Inhibition of NTPDase activity, text statements pooled over NTPDase1,2,3,8; assay type: biochemical; conditions: analogue 100 μM, pooled over four NTPDases
human NTPDase1 = target: T1, human NTPDase1 (Homo sapiens, UniProt P49961); assay: Inhibition of NTPDase1 activity; assay type: biochemical; conditions: analogue 100 μM, substrate ATP 100 μM
T1 sequence (P49961 1-510): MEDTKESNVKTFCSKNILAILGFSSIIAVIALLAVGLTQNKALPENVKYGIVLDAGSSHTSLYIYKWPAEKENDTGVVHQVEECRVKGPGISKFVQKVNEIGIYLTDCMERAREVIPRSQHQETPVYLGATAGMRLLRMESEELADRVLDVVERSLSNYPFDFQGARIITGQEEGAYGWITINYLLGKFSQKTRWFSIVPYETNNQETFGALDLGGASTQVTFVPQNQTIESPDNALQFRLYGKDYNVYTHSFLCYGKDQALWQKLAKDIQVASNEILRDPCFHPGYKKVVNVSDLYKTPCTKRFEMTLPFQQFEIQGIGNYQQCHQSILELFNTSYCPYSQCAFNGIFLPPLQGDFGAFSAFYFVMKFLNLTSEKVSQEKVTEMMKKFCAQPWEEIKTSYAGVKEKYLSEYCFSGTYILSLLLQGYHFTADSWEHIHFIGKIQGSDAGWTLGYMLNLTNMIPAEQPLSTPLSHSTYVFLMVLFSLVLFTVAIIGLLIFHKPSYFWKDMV

Compound	inhibition of ATP hydrolysis by NTPDase1,2,3,8 (human NTPDase1,2,3,8)	inhibition (%) ± SD, human NTPDase1 (human NTPDase1) [%]
Nc1ncnc2c1ncn2[C@@H]1O[C@H](CO[P@](O)(=S)OP(=O)(O)C(Cl)(Cl)P(=O)(O)O)[C@@H](O)[C@H]1O [2a]	did not interfere	–
Nc1ncnc2c1ncn2[C@@H]1O[C@H](COP(=O)(O)CP(=O)(O)OP(O)(O)=S)[C@@H](O)[C@H]1O [compound 3]	–	60
